Reference: PMC9585581, “Developing Photoaffinity Probes for Dopamine Receptor D2 to Determine Targets of Parkinson’s Disease Drugs” (ACS Chemical Neuroscience, 2022)
Values belong to the compound of their own block, whether it stands above or below them.

Columns and labels:
[1] = biological target: T1, human DRD2, long form (Homo sapiens, UniProt P14416); test: Intracellular Ca2+ mobilization assay (HEK293T stably expressing DRD2, chimeric G-protein Gqi5, calcium dye, confocal microscopy); type: cell-based; settings: for activity in calcium flux assay (in words): calcium flux bioactivity
T1 construct: expressed in transfected cells; Gqi5 chimera transiently transfected
T1 sequence (P14416 whole entry): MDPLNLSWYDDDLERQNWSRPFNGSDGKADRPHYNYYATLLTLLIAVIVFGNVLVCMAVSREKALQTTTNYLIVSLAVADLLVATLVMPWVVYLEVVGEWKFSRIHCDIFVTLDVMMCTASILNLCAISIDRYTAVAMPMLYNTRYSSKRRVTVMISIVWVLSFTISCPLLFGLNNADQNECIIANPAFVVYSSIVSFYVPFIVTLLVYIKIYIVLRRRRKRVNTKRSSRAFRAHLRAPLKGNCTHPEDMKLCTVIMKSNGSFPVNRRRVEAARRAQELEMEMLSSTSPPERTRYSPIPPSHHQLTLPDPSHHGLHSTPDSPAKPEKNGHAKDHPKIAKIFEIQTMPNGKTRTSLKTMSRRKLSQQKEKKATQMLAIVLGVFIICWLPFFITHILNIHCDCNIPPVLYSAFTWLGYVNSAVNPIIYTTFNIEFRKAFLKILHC
Protocol: Intracellular calcium measurement was used to determine G-protein-mediated signaling by DRD2. Because DRD2 is linked to the G-protein subtype Gi, agonist binding inhibits adenyl cyclase activity.[42] To mitigate this effect, we created an HEK293T cell line stably expressing human DRD2, long form, and a chimeric G-protein, Gqi, which alters the DRD2 receptor’s G-protein coupling so that signaling can occur through Gq, resulting in an intracellular calcium flux.[43] The assay is performed by first loading the cell line with a calcium-sensing dye. Binding of the ligand to the receptor results in an influx of calcium to the cytoplasm, which can be characterized in real time by monitoring the increase in dye fluorescence with confocal microscopy.
Figure 2 Intracellular calcium flux assay. HEK293T cell line stably expressing constructs for human DRD2 and a chimeric G-protein is loaded with calcium-sensing dye, […]. After dosing the probe, confocal microscopy is used to determine the calcium flux in the cell by change in dye fluorescence.
A stable HEK293T-derived cell line-expressing DRD2-Strep Tag II fusion was maintained in DMEM supplemented with 10% FBS, 100 U/mL penicillin, and 100 μg/mL streptomycin in a humidified atmosphere at 37 °C in 5% CO2. On day 1, cells were plated at a density of 4 × 10^4 cells/cm^2 in a poly-D-lysine-coated 18-well chambered coverslip (Ibidi). The following day (day 2), cells were transfected with a 10× solution of 3:1 mixture of Gqi5/Optifect Transfection Reagent (Thermo) in unsupplemented DMEM. On day 3, the transfection media was removed and calcium-sensitive dye loading was performed following the protocol of the Fluo-4 Direct Calcium Assay Kit (Invitrogen). 5× drug stimulation solutions were prepared in filter-sterilized HBSS. Once Fluo-4 loading was complete, a time series acquisition at a rate of 1 fps was recorded using a Zeiss LSM 980 with Airyscan 2. Basal fluorescence was recorded for 20 s, followed by the addition of drug solution to a 1× final concentration and acquisition for an additional 40 s. Results in the form of fold fluorescence increase over basal were averaged over 50 cells in ImageJ (NIH), and GraphPad Prism was used for the analysis of data.

[2] = biological target: T2, DRD2 (Homo sapiens, UniProt P14416); test: Western blot analysis of DRD2-probe binding with competition by parent pharmacophore; parameters: expressed in transfected cells; settings: probe 100 nm; membrane fraction enriched via Strep Tag II
T2 sequence (P14416 whole entry, the tested form may be a part): as the sequence (P14416 whole entry) above
Excerpt: To observe the photo-cross-linking of DRD2 at the protein level, we analyzed the colocalization of DRD2 by clicking a fluorophore on the probe and performing Western blots. We further observed the competition with the parent pharmacophore of each probe and the ability of a negative control benzophenone (16) to cross-link to DRD2. Our DRD2-expressing cells or unmodified 293T cells (control group) were suspended in media, treated with the probe at a 100 nm concentration, and photo-cross-linked. The cells were then lysed, and the membrane fraction was separated and enriched for DRD2 by pulldown of the Strep Tag II fusion using magnetic beads. After “clicking” a fluorescent tag to the probe, the membrane fraction was run on an SDS-PAGE gel, transferred to a nitrocellulose membrane, and treated with antibodies against DRD2 and Strep Tag II. […] We also observed many nonspecific binding bands for the probe, which is consistent with our other studies, as well as the observations of the field when it relates to photo-cross-linking groups. […] With this confirmation, we proceeded to proteomic analysis of probe interactions.
Figure 6 Photo-cross-linking of probes 5 and 7 to DRD2 visualized with Western blot. Lanes 1–5 correspond to samples with probe 5 at 100 nm, lanes 6–10 correspond to samples treated with probe 7 at 100 nm, and lanes 11–14 correspond to samples treated with negative control probe 16. Lanes: 1, 6, and 11 are the anti-DRD2 antibody channel, lanes 2, 3, 7, 8, and 12 are fluorescence of the Alexa Fluor 555 clicked to the probes 5, 7, or 16, lanes 4, 9, and 13 are the anti-Strep Tag antibody channel, and lanes 5, 10, and 14 are the overlaid channels for the respective probes.
A stable HEK293T-derived cell line-expressing DRD2-Strep Tag II fusion was maintained in DMEM supplemented with 10% FBS, 100 U/mL penicillin, and 100 μg/mL streptomycin in a humidified atmosphere at 37 °C in 5% CO2. Cells were plated at a density of 4 × 10^4 cells/cm^2 in T300 tissue culture flasks (CellTreat) and allowed to grow to an 80% confluency. At confluency, media was removed and cells were washed once with cold HBSS, followed by incubation for 15 min in cold HBSS with 0.53 mM EDTA. Following incubation, cells were scraped off of the bottom of the flask and the cell suspension was transferred to a 15 mL conical tube and then pelleted at 500g for 5 min. The supernatant was removed, and the cell pellet was resuspended in HBSS followed by centrifugation at 500g for 5 min. […] The supernatant of the cell pellet was removed, and the cells were resuspended in probe solution and incubated at room temperature for 2 min followed by centrifugation at 500g for 5 min. The cell pellet was resuspended in either HBSS or 50 μM competitor solution in HBSS and irradiated with a 365 nm UV lamp (8 W, 2 cm distance) for 30 min at room temperature. The cells were then pelleted at 500g for 5 min, and the supernatant was removed. Membrane fractionation was performed following the MEM-PER Membrane Protein Extraction Kit (Thermo). The solubilized membrane fraction was incubated with hydrophilic streptavidin magnetic beads (NEB) for 1 h at room temperature. The flow-through was removed, and the beads were washed twice with PBS. […]

[3] = cited from earlier work
[4] = biological target: T2, DRD2; test: PRESTO-TANGO β-arrestin recruitment assay (HTLA cells transfected with DRD2-TANGO, luciferase readout); type: cell-based; parameters: TEV protease site and fused transcription factor (TANGO module); expressed in transfected cells; host or cells: HTLA cells (gift of G. Barnea), transiently transfected; settings: for activity in β-arrestin recruitment (in words): PRESTO-TANGO
Excerpt: To characterize the response of the β-arrestin effector pathway to our ligands, we used the Parallel-Receptor-ome Expression and Screening via Transcriptional Output TANGO (PRESTO-TANGO) assay developed in the Roth lab.[44],[45] This assay uses luciferase activity to monitor β-arrestin recruitment by DRD2 (Figure 3a).
Figure 3 β-Arrestin recruitment analysis. (a) PRESTO-TANGO assay schematic: a ligand binds a chimeric DRD2 receptor, which then recruits β-arrestin fused with a TEV protease. The protease cuts a site between the receptor and a fused transcription factor, which then transits to the […] to initiate transcription of a luciferase gene. The luciferase activity is subsequently quantified.
HTLA cells were a gift from the laboratory of G. Barnea and were maintained in DMEM supplemented with 10% FBS, 100 U/mL penicillin, 100 μg/mL streptomycin, 2 μg/mL puromycin, 100 μg/mL hygromycin B, and 100 μg/mL G418 in a humidified atmosphere at 37 °C in 5% CO2. On day 1, cells were plated at a density of 1 × 10^5 cells/cm^2 in a black wall, clear-bottom 96-well plate (Nunc). The following day (day 2), cells were transfected with a 10× solution of 3:1 mixture of DRD2-TANGO/Optifect Transfection Reagent (Thermo) in unsupplemented DMEM. On day 3, 1× drug stimulation solutions were prepared in filter-sterilized unsupplemented DMEM. The transfection media was shaken or aspirated from the wells, and drug stimulation solutions were gently added. On day 4, drug solutions were removed from one well every 10 s (to maintain consistency of incubation time) and 50 μL per well of Bright-Glo solution (Promega) diluted 20-fold in HBSS was added. After incubation for 2 min at room temperature, luminescence was counted with an integration time of 10 s in a Spectramax i3x plate reader (Molecular Devices).

[5] = system: Dopamine receptor D1; settings: stated without reference; cited from earlier work

activity in calcium flux assay (in words) [1]: greatly diminished activity
SMILES: C#CCCC1(CCC(=O)N(CCC)CCc2cccc3c2CC(=O)N3)N=N1 [Compound 4, 3-(3-(But-3-yn-1-yl)-3H-diazirin-3-yl)-N-(2-(2-oxoindolin-4-yl)ethyl)-N-propylpropanamide]

activity in calcium flux assay (in words) [1]: greatly diminished activity
SMILES: C#CCCC1(CCC(=O)N[C@H]2CCc3nc(N)sc3C2)N=N1 [Compound 8, (S)-N-(2-Amino-4,5,6,7-tetrahydrobenzo[d]thiazol-6-yl)-3-(3-(but-3-yn-1-yl)-3H-diazirin-3-yl)propanamide]

SMILES: C#CCOc1ccc(C(=O)c2ccc(CN)cc2)cc1 [Compound 16, reference compound]
photo-cross-linking / colocalization with DRD2 band (Western blot) [2]: did not show colocalization with the DRD2 band

activity in β-arrestin recruitment (in words) [4]: low nanomolar activity
SMILES: CCCN[C@H]1CCc2nc(N)sc2C1 [pramipexole]
patients experiencing adverse drug reactions [3]: ≤ 74%
binding to dopamine receptor D1 (in words) [5]: bound poorly

EC50 ([1]; Ca assay, HEK293T stably expressing human DRD2 and chimeric G-protein, Hill slope of 1.0): 0.124 µM
activity in β-arrestin recruitment (in words) [4]: low nanomolar activity
EC50 ([4]; PRESTO-TANGO β-arrestin recruitment, luciferase activity, Hill slope of 1.0): 0.00614 µM
SMILES: CCCN(CCC)CCc1cccc2c1CC(=O)N2 [ropinirole, reference compound]
